According to ChEMBL document CHEMBL5344429, “1,3-Substituted β-Carboline Derivatives as Potent Chemotherapy for the Treatment of Cystic Echinococcosis” (J Med Chem, 2023):
The source made the active and inactive calls. The rule behind the calls is not given here.

Legend:
Echinococcus granulosus [1] = assay: Parasiticidal activity against Echinococcus granulosus protoscolices assessed as death rate at 1 uM incubated for 48 hrs by eosin exclusion test; type: functional
Echinococcus granulosus [2] = assay: Parasiticidal activity against Echinococcus granulosus protoscolices […] by eosin exclusion test; type: functional; conditions: 1152 h, time 48 day
Echinococcus granulosus [3] = assay: Inhibition of Echinococcus granulosus; type: functional
Echinococcus granulosus [4] = assay: Parasiticidal activity against Echinococcus granulosus protoscolices assessed as survival rate at 1 uM incubated for 48 hrs by eosin exclusion test; type: functional
Echinococcus granulosus [5] = assay: Parasiticidal activity against Echinococcus granulosus protoscolices assessed as body shrank with irregular edge at 5 uM incubated for 4 days by H and E staining based assay; type: functional, organism-based; conditions: time 4.0 day
Echinococcus granulosus [6] = assay: Parasiticidal activity against Echinococcus granulosus protoscolices assessed as appearance of partial shedding at 5 uM incubated for 4 days by H and E staining based assay; type: functional, organism-based; conditions: time 4.0 day
Echinococcus granulosus [7] = assay: Parasiticidal activity against Echinococcus granulosus protoscolices assessed as appearance of relative completion of sucker at 5 uM incubated for 2 days by scanning electron microscopy; type: functional, organism-based; conditions: time 2.0 day
Echinococcus granulosus [8] = assay: Parasiticidal activity against Echinococcus granulosus protoscolices assessed as outer skin and hooks fall off at 5 uM incubated for 2 days by scanning electron microscopy; type: functional, organism-based; conditions: time 2.0 day
Echinococcus granulosus [9] = assay: Parasiticidal activity against Echinococcus granulosus assessed as cyst destruction at 100 uM incubated for 4 days by scanning electron microscopy; type: functional, organism-based; conditions: time 4.0 day
Echinococcus granulosus [10] = assay: Parasiticidal activity against Echinococcus granulosus microcyst infected in kunming mouse assessed as mean cyst weight at 50 mg/kg, ip administered for 14 days; type: functional; conditions: time 14 day
Echinococcus granulosus [11] = assay: Parasiticidal activity against Echinococcus granulosus microcyst infected in kunming mouse assessed as mean cyst weight at 50 mg/kg, ip administered for 28 days; type: functional; conditions: time 28 day
Echinococcus granulosus [12] = assay: Parasiticidal activity against Echinococcus granulosus microcyst infected in kunming mouse assessed as mean cyst weight at 25 mg/kg, ip administered for 14 days; type: functional; conditions: time 14 day
Echinococcus granulosus [13] = assay: Parasiticidal activity against Echinococcus granulosus microcyst infected in kunming mouse assessed as mean cyst weight at 25 mg/kg, ip administered for 28 days; type: functional; conditions: time 28 day
Echinococcus granulosus [14] = assay: Parasiticidal activity against Echinococcus granulosus microcyst infected in kunming mouse assessed as mean cyst weight at 12.5 mg/kg, ip administered for 14 days; type: functional; conditions: time 14 day
Echinococcus granulosus [15] = assay: Parasiticidal activity against Echinococcus granulosus microcyst infected in kunming mouse assessed as mean cyst weight at 12.5 mg/kg, ip administered for 28 days; type: functional; conditions: time 28 day
Echinococcus granulosus [16] = assay: Parasiticidal activity against Echinococcus granulosus microcyst infected in kunming mouse assessed as reduction in cyst weight at 50 mg/kg, ip administered for 14 days relative to control; type: functional; parameters: scale not given: the % may be the effect or the level left; conditions: time 14 day
Echinococcus granulosus [17] = assay: Parasiticidal activity against Echinococcus granulosus microcyst infected in kunming mouse assessed as reduction in cyst weight at 50 mg/kg, ip administered for 28 days relative to control; type: functional; parameters: scale not given: the % may be the effect or the level left; conditions: time 28 day
Echinococcus granulosus [18] = assay: Parasiticidal activity against Echinococcus granulosus microcyst infected in kunming mouse assessed as reduction in cyst weight at 25 mg/kg, ip administered for 14 days relative to control; type: functional; parameters: scale not given: the % may be the effect or the level left; conditions: time 14 day
Echinococcus granulosus [19] = assay: Parasiticidal activity against Echinococcus granulosus microcyst infected in kunming mouse assessed as reduction in cyst weight at 25 mg/kg, ip administered for 28 days relative to control; type: functional; parameters: scale not given: the % may be the effect or the level left; conditions: time 28 day
Echinococcus granulosus [20] = assay: Parasiticidal activity against Echinococcus granulosus microcyst infected in kunming mouse assessed as reduction in cyst weight at 12.5 mg/kg, ip administered for 14 days relative to control; type: functional; parameters: scale not given: the % may be the effect or the level left; conditions: time 14 day
Echinococcus granulosus [21] = assay: Parasiticidal activity against Echinococcus granulosus microcyst infected in kunming mouse assessed as reduction in cyst weight at 12.5 mg/kg, ip administered for 28 days relative to control; type: functional; parameters: scale not given: the % may be the effect or the level left; conditions: time 28 day
Echinococcus granulosus [22] = assay: Parasiticidal activity against intraperitoneal cystic Echinococcus granulosus infected in Kunming mouse assessed as decrease number of microvilli at 50 mg/kg, ip administered for 28 days by TEM analysis; type: functional, organism-based; conditions: time 28.0 day
Echinococcus granulosus [23] = assay: Parasiticidal activity against intraperitoneal cystic Echinococcus granulosus infected in Kunming mouse assessed as appearance of unclear cortex at 50 mg/kg, ip administered for 28 days by TEM analysis; type: functional, organism-based; conditions: time 28.0 day
Echinococcus granulosus [24] = assay: Parasiticidal activity against intraperitoneal cystic Echinococcus granulosus infected in Kunming mouse assessed as reduction in cell count with clear nucleolus at 50 mg/kg, ip administered for 28 days by TEM analysis; type: functional, organism-based; conditions: time 28.0 day
[25] = Neurotoxicity in Kunming mouse assessed as loosely arranged pyramidal cells in brain at 50 mg/kg, ip administered for 28 days by H and E staining based assay; type: toxicity, organism-based; conditions: in vivo, 672 h, time 28 day
[26] = Neurotoxicity in Kunming mouse assessed as swollen pyramidal cells in brain at 50 mg/kg, ip administered for 28 days by H and E staining based assay; type: toxicity, organism-based; conditions: in vivo, 672 h, time 28 day
[27] = Neurotoxicity in Kunming mouse assessed as deformed pyramidal cells in brain at 50 mg/kg, ip administered for 28 days by H and E staining based assay; type: toxicity, organism-based; conditions: in vivo, 672 h, time 28 day
[28] = Neurotoxicity in Kunming mouse assessed as widened perinuclear space in hippocampal neurons at 50 mg/kg, ip administered for 28 days by TEM analysis; type: toxicity, organism-based; conditions: in vivo, 672 h, time 28 day
[29] = Neurotoxicity in Kunming mouse assessed as incomplete mitochondrial membrane in hippocampal at 50 mg/kg, ip administered for 28 days by TEM analysis; type: toxicity, organism-based; conditions: in vivo, 672 h, time 28 day
[30] = Neurotoxicity in Kunming mouse assessed as partial cristae in hippocampal at 50 mg/kg, ip administered for 28 days by TEM analysis; type: toxicity, organism-based; conditions: in vivo, 672 h, time 28 day
[31] = Neurotoxicity in Kunming mouse assessed as blurred synaptic space in hippocampal at 50 mg/kg, ip administered for 28 days by TEM analysis; type: toxicity, organism-based; conditions: in vivo, 672 h, time 28 day
[32] = Neurotoxicity in Kunming mouse assessed as increased postsynaptic density in hippocampal at 50 mg/kg, ip administered for 28 days by TEM analysis; type: toxicity, organism-based; conditions: in vivo, 672 h, time 28 day
Echinococcus granulosus [33] = assay: Induction of autophagy in Echinococcus granulosus protoscolices assessed as decrease in p62 expression level at 5 uM measured after 4 days by Western blot analysis; type: functional, organism-based; conditions: time 4.0 day
Echinococcus granulosus [34] = assay: Induction of autophagy in Echinococcus granulosus protoscolices assessed as increase in ATG5 expression level at 5 uM measured after 4 days by Western blot analysis; type: functional, organism-based; conditions: time 4.0 day
Echinococcus granulosus [35] = assay: Induction of autophagy in Echinococcus granulosus protoscolices assessed as increase in Beclin1 expression level at 5 uM measured after 4 days by Western blot analysis; type: functional, organism-based; conditions: time 4.0 day
[36] = Neurotoxicity in Kunming mouse assessed as effect on hippocampal structure at 50 mg/kg, ip administered for 28 days by TEM analysis; type: toxicity, organism-based; conditions: in vivo, 672 h, time 28 day
[37] = Neurotoxicity in Kunming mouse assessed as effect on hippocampal arrangement at 50 mg/kg, ip administered for 28 days by TEM analysis; type: toxicity, organism-based; conditions: in vivo, 672 h, time 28 day
[38] = Neurotoxicity in Kunming mouse assessed as effect on heterochromatin at 50 mg/kg, ip administered for 28 days by TEM analysis; type: toxicity, organism-based; conditions: in vivo, 672 h, time 28 day
[39] = Neurotoxicity in Kunming mouse assessed as organelles damage at 50 mg/kg, ip administered for 28 days by TEM analysis; type: toxicity, organism-based; conditions: in vivo, 672 h, time 28 day
[40] = Neurotoxicity in Kunming mouse assessed as nuclei damage at 50 mg/kg, ip administered for 28 days by TEM analysis; type: toxicity, organism-based; conditions: in vivo, 672 h, time 28 day

## COc1ccc(-c2nc(NC(=O)c3ccc(CN4CCCN(C)CC4)cc3)cc3c2[nH]c2ccccc23)cc1OC
Echinococcus granulosus [1]
  Activity: Active
Echinococcus granulosus [2]
  LC50: 13.2 µM

## CCCCn1c2ccccc2c2ccnc(-c3ccc(OC)cc3)c21
Echinococcus granulosus [3]
  LC50: 47.8 µM

## CCCSc1ccc2[nH]c(NC(=O)OC)nc2c1 [ALBENDAZOLE]
Echinococcus granulosus [4]
  Activity: 100%
Echinococcus granulosus [2]
  LC50: 154 µM
Echinococcus granulosus [5]
  Activity: Active
Echinococcus granulosus [6]
  Activity: Active
Echinococcus granulosus [7]
  Activity: Active
Echinococcus granulosus [8]
  Activity: Active
Echinococcus granulosus [9]
  Activity: inactive
Echinococcus granulosus [10]
  Activity: 23.3 mg
Echinococcus granulosus [11]
  Activity: 24.2 mg
Echinococcus granulosus [12]
  Activity: 26.2 mg
Echinococcus granulosus [13]
  Activity: 25.3 mg
Echinococcus granulosus [14]
  Activity: 29.5 mg
Echinococcus granulosus [15]
  Activity: 26.7 mg
Echinococcus granulosus [16]
  Activity: 54.7%
Echinococcus granulosus [17]
  Activity: 55.4%
Echinococcus granulosus [18]
  Activity: 49.16%
Echinococcus granulosus [19]
  Activity: 53.45%
Echinococcus granulosus [20]
  Activity: 42.77%
Echinococcus granulosus [21]
  Activity: 50.9%
Echinococcus granulosus [22]
  Activity: Active
Echinococcus granulosus [23]
  Activity: Active
Echinococcus granulosus [24]
  Activity: Active

## COc1ccc2c(c1)[nH]c1c(C)nccc12 [HARMINE]
Echinococcus granulosus [4]
  Activity: 100%
Echinococcus granulosus [2]
  LC50: 135 µM
Echinococcus granulosus [5]
  Activity: Active
Echinococcus granulosus [6]
  Activity: Active
Echinococcus granulosus [7]
  Activity: Active
Echinococcus granulosus [8]
  Activity: Active
Echinococcus granulosus [9]
  Activity: inactive
Echinococcus granulosus [10]
  Activity: 22.7 mg
Echinococcus granulosus [11]
  Activity: 23.4 mg
Echinococcus granulosus [12]
  Activity: 25.1 mg
Echinococcus granulosus [13]
  Activity: 24.8 mg
Echinococcus granulosus [14]
  Activity: 27.8 mg
Echinococcus granulosus [15]
  Activity: 26.6 mg
Echinococcus granulosus [16]
  Activity: 55.97%
Echinococcus granulosus [17]
  Activity: 56.93%
Echinococcus granulosus [18]
  Activity: 51.2%
Echinococcus granulosus [19]
  Activity: 54.4%
Echinococcus granulosus [20]
  Activity: 46.13%
Echinococcus granulosus [21]
  Activity: 67.17%
Echinococcus granulosus [22]
  Activity: Active
Echinococcus granulosus [23]
  Activity: Active
Echinococcus granulosus [24]
  Activity: Active
[25]
  Activity: Toxic
[26]
  Activity: Toxic
[27]
  Activity: Toxic
[28]
  Activity: Toxic
[29]
  Activity: Toxic
[30]
  Activity: Toxic
[31]
  Activity: Toxic
[32]
  Activity: Toxic
Echinococcus granulosus [33]
  Activity: Active
Echinococcus granulosus [34]
  Activity: Active
Echinococcus granulosus [35]
  Activity: Active

## COc1ccc(-c2nc(C(=O)Nc3ccc(CN4CCC(N5CCCCC5)CC4)cc3)cc3c2[nH]c2ccccc23)cc1
Echinococcus granulosus [1]
  Activity: Active
Echinococcus granulosus [2]
  LC50: 7.67 µM

## COc1cccc(-c2nc(C(=O)Nc3ccc(CN4CCC(N5CCCCC5)CC4)cc3)cc3c2[nH]c2ccccc23)c1
Echinococcus granulosus [1]
  Activity: Active
Echinococcus granulosus [2]
  LC50: 18.1 µM

## COc1ccc(-c2nc(C(=O)Nc3ccc(CN4CCC(N5CCCCC5)CC4)cc3)cc3c2[nH]c2ccccc23)c(OC)c1
Echinococcus granulosus [1]
  Activity: Active
Echinococcus granulosus [2]
  LC50: 13 µM

## CCCSc1ccc2nc(NC(=O)OC)[nH]c2c1 [ALBENDAZOLE]
[25]
  Activity: Non-Toxic
[26]
  Activity: Non-Toxic
[27]
  Activity: Non-Toxic
[36]
  Activity: Non-Toxic
[37]
  Activity: Non-Toxic
[38]
  Activity: Non-Toxic
[39]
  Activity: Non-Toxic
[40]
  Activity: Non-Toxic
